Columns and labels:
FLT3 = target: T1, FLT3 (Homo sapiens, UniProt P36888); test: TR-FRET kinase activity assay, FLT3; format: biochemical; details: ATP at Km, 60 minutes
T1 sequence (P36888 27-993): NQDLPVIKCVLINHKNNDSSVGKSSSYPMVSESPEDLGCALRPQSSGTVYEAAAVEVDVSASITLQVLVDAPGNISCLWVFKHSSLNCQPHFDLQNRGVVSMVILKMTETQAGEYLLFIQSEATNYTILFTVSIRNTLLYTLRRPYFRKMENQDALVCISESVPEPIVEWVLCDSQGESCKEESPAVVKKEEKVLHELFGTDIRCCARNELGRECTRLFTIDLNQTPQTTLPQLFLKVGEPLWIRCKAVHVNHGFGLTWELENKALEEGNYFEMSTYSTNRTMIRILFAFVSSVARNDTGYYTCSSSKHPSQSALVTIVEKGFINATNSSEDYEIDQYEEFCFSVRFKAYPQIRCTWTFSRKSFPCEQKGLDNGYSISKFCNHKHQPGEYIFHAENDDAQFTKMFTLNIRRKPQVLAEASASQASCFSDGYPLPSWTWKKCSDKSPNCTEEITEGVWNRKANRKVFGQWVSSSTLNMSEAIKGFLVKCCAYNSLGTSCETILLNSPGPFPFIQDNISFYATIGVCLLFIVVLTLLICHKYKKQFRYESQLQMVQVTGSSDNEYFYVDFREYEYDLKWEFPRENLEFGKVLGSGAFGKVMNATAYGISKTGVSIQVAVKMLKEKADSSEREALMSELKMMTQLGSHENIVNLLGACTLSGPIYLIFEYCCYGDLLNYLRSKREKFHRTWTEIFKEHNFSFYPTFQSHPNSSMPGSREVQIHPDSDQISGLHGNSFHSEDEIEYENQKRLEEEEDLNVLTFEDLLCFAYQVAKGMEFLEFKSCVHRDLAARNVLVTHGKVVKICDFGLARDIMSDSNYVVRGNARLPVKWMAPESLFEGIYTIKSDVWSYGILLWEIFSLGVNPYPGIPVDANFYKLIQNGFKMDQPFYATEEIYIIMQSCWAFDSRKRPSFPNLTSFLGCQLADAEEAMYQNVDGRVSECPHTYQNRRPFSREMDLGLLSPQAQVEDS
Procedure, shortened: (§1)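 IC50 reflects the drop in TR-FRET between Eu anti-phosphotyrosine antibody and labelled peptide after a 60-minute room-temperature reaction. Buffer was 50 mM HEPES pH 7.5 with 10 mM MgCl2, 1 mM EGTA, 0.01% Brij 35 and 1 mM DTT, with ATP at Km per enzyme and EDTA quench.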

MERTK = target: T2, MERTK (Homo sapiens, UniProt Q12866); test: TR-FRET kinase activity assay, MERTK; format: biochemical; details: for IC50: TR-FRET activity assay, ATP at Km, 60 minutes, read-out: Mer IC50
T2 sequence (Q12866 21-999): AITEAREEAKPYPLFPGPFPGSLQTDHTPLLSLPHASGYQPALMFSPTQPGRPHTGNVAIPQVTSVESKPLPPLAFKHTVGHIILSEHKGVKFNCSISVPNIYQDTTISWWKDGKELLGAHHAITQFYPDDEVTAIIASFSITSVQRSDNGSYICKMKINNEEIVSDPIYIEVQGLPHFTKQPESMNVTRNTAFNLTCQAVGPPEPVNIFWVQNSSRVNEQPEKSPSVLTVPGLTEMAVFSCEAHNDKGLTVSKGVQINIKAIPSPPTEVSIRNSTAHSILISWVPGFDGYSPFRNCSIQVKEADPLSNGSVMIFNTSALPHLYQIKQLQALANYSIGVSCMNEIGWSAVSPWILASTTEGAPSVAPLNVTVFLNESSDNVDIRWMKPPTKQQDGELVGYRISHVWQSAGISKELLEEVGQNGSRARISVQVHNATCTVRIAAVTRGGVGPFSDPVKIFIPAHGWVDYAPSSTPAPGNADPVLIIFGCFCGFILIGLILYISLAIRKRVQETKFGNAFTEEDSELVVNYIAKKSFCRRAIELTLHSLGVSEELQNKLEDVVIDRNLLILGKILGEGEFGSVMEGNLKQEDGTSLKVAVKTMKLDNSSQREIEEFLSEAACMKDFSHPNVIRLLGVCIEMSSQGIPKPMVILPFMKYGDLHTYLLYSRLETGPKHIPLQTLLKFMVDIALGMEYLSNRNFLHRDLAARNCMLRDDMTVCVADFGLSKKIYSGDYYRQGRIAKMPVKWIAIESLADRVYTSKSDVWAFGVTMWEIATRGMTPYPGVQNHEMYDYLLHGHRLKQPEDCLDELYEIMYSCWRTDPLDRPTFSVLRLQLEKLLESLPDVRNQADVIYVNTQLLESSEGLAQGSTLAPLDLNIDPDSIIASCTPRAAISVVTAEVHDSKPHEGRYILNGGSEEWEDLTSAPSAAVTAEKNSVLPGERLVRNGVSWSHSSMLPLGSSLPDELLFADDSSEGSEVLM
Procedure, shortened: as §1

[1] = ratio of Mer to FLT3: FLT3 IC50/Mer IC50
[2] = ratio calculated as FLT3 IC50/Mer IC50

IC50 (FLT3) [nM] | IC50 (MERTK) [nM] | FLT3/Mer ratio (FLT3 IC50/Mer IC50) (MERTK; [1]) | FLT3/Mer ratio (FLT3 IC50/Mer IC50) (MERTK; [2]) | SMILES
100 to 1000 | ≤ 100 |  | +++ (“+++” represents a ratio of >100) | C[C@@H](COC(F)F)Nc1ncc2c(-c3ccnc(N4CCOC(C(C)(C)O)C4)c3)cc([C@H]3CC[C@H](O)CC3)n2n1 (stereo partly drawn) [Compound 598]
1000 to 10000 | ≤ 100 |  | +++ (“+++” represents a ratio of >100) | COC[C@H](C)Nc1ncc2c(-c3cnn(C(C)(C)c4nnc(N5CCOCC5)o4)c3)cc(C3CCC(O)CC3)n2n1 (stereo partly drawn) [Compound 631]
100 to 1000 | ≤ 100 |  | +++ (“+++” represents a ratio of >100) | COC[C@H](C)Nc1ncc2c(-c3cnn(C(C)(C)C(=O)N4CCCC(C)(O)C4)c3)cc([C@H]3CC[C@H](O)CC3)n2n1 (stereo partly drawn) [Compound 621]
1000 to 10000 | ≤ 100 |  | +++ (“+++” represents a ratio of >100) | COC[C@H](C)Nc1ncc2c(-c3cnn(C(C)(C)c4ncc(C)o4)c3)cc(C3CCC(O)CC3)n2n1 (stereo partly drawn) [Compound 628]
100 to 1000 | ≤ 100 |  | +++ (“+++” represents a ratio of >100) | COC[C@H](C)Nc1ncc2c(-c3cnn(C4COC4)c3)cc([C@H]3CC[C@](O)(C(C)C)CC3)n2n1 [Compound 617]
100 to 1000 | ≤ 100 |  | +++ (“+++” represents a ratio of >100) | COC[C@H](C)Nc1ncc2c(-c3ccnc(N4CC(C)(O)C4)c3)cc(C3CCC(O)CC3)n2n1 (stereo partly drawn) [Compound 632]
100 to 1000 | ≤ 100 |  | +++ (“+++” represents a ratio of >100) | COC[C@H](C)Nc1ncc2c(-c3cnn(C(C)(C)c4nnc(C)s4)c3)cc([C@H]3CC[C@H](O)CC3)n2n1 [Compound 625]
100 to 1000 | ≤ 100 |  | +++ (“+++” represents a ratio of >100) | COC[C@H](C)Nc1ncc2c(-c3ccnc(N4CCC(C)(O)CC4)c3)cc([C@H]3CC[C@H](O)CC3)n2n1 [Compound 605]
1000 to 10000 | ≤ 100 |  | +++ (“+++” represents a ratio of >100) | COC[C@H](C)Nc1ncc2c(-c3cnn(C(C)(C)c4nnc([C@H]5CCCO5)o4)c3)cc([C@H]3CC[C@H](O)CC3)n2n1 [Compound 602]

The remaining lines, values behind:

SMILES | IC50 (FLT3) [nM] | IC50 (MERTK) [nM] | FLT3/Mer ratio (FLT3 IC50/Mer IC50) (MERTK; [1]) | FLT3/Mer ratio (FLT3 IC50/Mer IC50) (MERTK; [2])
COC[C@H](C)Nc1ncc2c(-c3ccc([C@@H](C)N4CCOCC4)cc3)cc([C@H]3CC[C@H](O)CC3)n2n1 [Compound 156] | 100 to 1000 | ≤ 100 | ++ (“++” represents a ratio of between 10 and 100) | 
COC[C@H](C)Nc1ncc2c(-c3cnn(C4CCOCC4)c3)cc([C@H]3CC[C@H](O)CC3)n2n1 [Compound 151] | 100 to 1000 | ≤ 100 | +++ (“+++” represents a ratio of >100) | 
C[C@@H](CC(F)(F)F)Nc1ncc2c(-c3cnn(C(C)(C)C(=O)C4COC4)c3)cc([C@H]3CC[C@@](C)(O)CC3)n2n1 [Compound 609] | ≤ 100 | ≤ 100 |  | ++ (“++” represents a ratio of between 10 and 100)
COC[C@H](C)Nc1ncc2c(-c3ccnc(C)c3)cc([C@H]3CC[C@H](O)CC3)n2n1 [Compound 146] | 1000 to 10000 | ≤ 100 | +++ (“+++” represents a ratio of >100) | 
COC[C@H](C)Nc1ncc2c(-c3ccc(C#N)c(F)c3)cc([C@H]3CC[C@H](O)CC3)n2n1 [Compound 169] | 1000 to 10000 | ≤ 100 | +++ (“+++” represents a ratio of >100) | 
COC[C@H](C)Nc1ncc2c(N3CC4(COC4)CC3=O)cc([C@H]3CC[C@H](O)CC3)n2n1 [Compound 178] | 1000 to 10000 | ≤ 100 | +++ (“+++” represents a ratio of >100) | 
COC[C@H](C)Nc1ncc2c(-c3ccc(C(=O)N4CCN(C)CC4)cc3)cc([C@H]3CC[C@H](O)CC3)n2n1 [Compound 144] | 100 to 1000 | ≤ 100 | +++ (“+++” represents a ratio of >100) | 
COCC(C)Nc1ncc2c(-c3ccc(C(C)N4CCOCC4)cc3)cc(C3CCC(O)CC3)n2n1 (stereo not drawn) [Compound 181] | ≤ 100 | ≤ 100 | ++ (“++” represents a ratio of between 10 and 100) | 
COC[C@H](C)Nc1ncc2c(-c3cnccc3C)cc([C@H]3CC[C@H](O)CC3)n2n1 [Compound 168] | 1000 to 10000 | ≤ 100 | +++ (“+++” represents a ratio of >100) | 
COC[C@H](C)Nc1ncc2c(-c3ccc(C4(C(=O)O)CC4)cc3)cc([C@H]3CC[C@H](O)CC3)n2n1 [Compound 173] | 100 to 1000 | ≤ 100 | +++ (“+++” represents a ratio of >100) | 
COC[C@H](C)Nc1ncc2c(-c3ccc(CN4CCN(C(C)=O)CC4)cc3)cc([C@H]3CC[C@H](O)CC3)n2n1 [Compound 150] | 100 to 1000 | ≤ 100 | ++ (“++” represents a ratio of between 10 and 100) | 
COC[C@H](C)Nc1ncc2c(-c3cnn(C4COC4)c3)cc([C@H]3CCc4[nH]ncc4C3)n2n1 [Compound 624] | ≤ 100 | ≤ 100 |  | ++ (“++” represents a ratio of between 10 and 100)
COC[C@H](C)Nc1ncc2c(-c3cnn(CC(=O)O)c3)cc([C@H]3CC[C@H](O)CC3)n2n1 [Compound 160] | 1000 to 10000 | ≤ 100 | +++ (“+++” represents a ratio of >100) | 
COC[C@H](C)Nc1ncc2c(-c3cnn(CC(=O)N4CCOCC4)c3)cc([C@H]3CC[C@H](O)CC3)n2n1 [Compound 162] | 100 to 1000 | ≤ 100 | +++ (“+++” represents a ratio of >100) | 

Reference: patent publication US11040981B2, “Pyrrolotriazine compounds and methods of inhibiting TAM kinases” (Syros Pharmaceuticals, Inc., priority 2017, dated 2021)
